# Measurements as given in ChEMBL document CHEMBL5620382, “Fluoroindole chalcone analogues targeting the colchicine binding site of tubulin for colorectal oncotherapy” (Eur J Med Chem, 2023).
# Calls of active or inactive are those of the source. The rule behind the calls is not given here.
# How the values were obtained:
# HCT-116 [1] = assay: Antiproliferative activity against human HCT-116 cells assessed as dead cells at 2.5 to 20 nM measured after 24 hrs by Calcein-AM/PI staining based immunofluorescence analysis; format: functional, cell-based; conditions: dose 2.5-20 nM
# Tubulin = assay: Binding affinity to wild type tubulin (unknown origin) by MST analysis; format: protein-complex assay, Homo sapiens
# CT26 [2] = assay: Induction of endoplasmic reticulum (ER) stress in mouse CT26 cells assessed as increase p-IRE1alpha expression at 10 to 40 nM measured after 24 hrs by Western blot analysis; format: functional, cell-based; conditions: dose 10-40 nM
# HCT-116 [3] = assay: Induction of mitochondrial dysfunction in human HCT-116 cells assessed as reduction in oxygen consumption rate (OCR) incubated for 24 hrs; format: functional, cell-based; conditions: dose 1.25-20 µM
# HCT-116 [4] = assay: Induction of endoplasmic reticulum (ER) stress in human HCT-116 cells assessed as increase in ROS level at 2.5 nM measured after 24 hrs by fluorescent analysis (reference value: 12%); format: functional
# CT26 [5] = assay: Induction of endoplasmic reticulum (ER) stress in mouse CT26 cells assessed as increase in ROS level at 10 nM measured after 24 hrs by fluorescent analysis (reference value: 14%); format: functional
# CT26 [6] = assay: Induction of cell cycle arrest in mouse CT26 cells […] assessed as accumulation of cells at G2/M phase at 2.5 to 10 nM by flow cytometry analysis; format: functional, cell-based; conditions: dose 2.5-10 nM
# CT26 [7] = assay: Induction of endoplasmic reticulum (ER) stress in mouse CT26 cells assessed as increase in ROS level at 5 nM measured after 24 hrs by fluorescent analysis (reference value: 14%); format: functional
# Tubulin (Homo sapiens) = Tubulin (Homo sapiens) (UniProt P68371+Q9H4B7+P0DPH7+P68366+Q13509+Q71U36+P04350+Q3ZCM7+P07437+P68363+Q9BQE3+Q6PEY2+Q13885+Q9BVA1+Q9BUF5); assay: Induction of microtubule stabilization in human HCT-116 cells at […] using 1:300 ratio of cell lysate/pronase incubated for 2 hrs by drug affinity reactive target stabilization (DARTS) assay; format: subcellular
# Mus musculus = assay: Antitumor activity against C57BL/6-APCmin/+ mouse model assessed as reduction in number of tumors in intestine at 3 mg/kg, ip treated for 45 days relative to control; format: functional, organism-based; conditions: time 45.0 day
# HCT-116 [8] = assay: Induction of endoplasmic reticulum (ER) stress in human HCT-116 cells assessed as increase in ROS level at 5 nM measured after 24 hrs by fluorescent analysis (reference value: 12%); format: functional
# HCT-116 [9] = assay: Induction of endoplasmic reticulum (ER) stress in human HCT-116 cells assessed as rough long-linear and irregularly dilated with locally verified expansion at 10 to 20 nM measured after 24 hrs by transmission electron microscope (TEM) analysis; format: functional, cell-based; conditions: dose 10-20 nM
# CT26 [10] = assay: Antiproliferative activity against mouse CT26 cells assessed as dead cells at 2.5 to 40 nM measured after 24 hrs by Calcein-AM/PI staining based immunofluorescence analysis; format: functional, cell-based; conditions: dose 2.5-40 nM
# HCT-116 [11] = assay: Induction of mitochondrial dysfunction in human HCT-116 cells assessed as change in mitochondrial membrane potential (MMP) by JC-1 fluorescence assay; format: functional, cell-based; conditions: dose 1.25-20 µM
# HCT-116 [12] = assay: Induction of endoplasmic reticulum (ER) stress in human HCT-116 cells assessed as increase p-PERK expression at 10 to 20 nM measured after 24 hrs by Western blot analysis; format: functional, cell-based; conditions: dose 10-20 nM
# HCT-116 [13] = assay: Induction of endoplasmic reticulum (ER) stress in human HCT-116 cells assessed as increase in ROS level at 20 nM measured after 24 hrs by fluorescent analysis (reference value: 12%); format: functional
# HCT-116 [14] = assay: Induction of endoplasmic reticulum (ER) stress in human HCT-116 cells assessed as increase in ROS level at 10 to 20 nM measured after 24 hrs by DCFH-DA analysis; format: functional, cell-based; conditions: dose 10-20 nM
# CT26 [15] = assay: Induction of endoplasmic reticulum (ER) stress in mouse CT26 cells assessed as increase p-eIF2alpha expression at 10 to 40 nM measured after 24 hrs by Western blot analysis; format: functional, cell-based; conditions: dose 10-40 nM
# HCT-116 [16] = assay: Induction of endoplasmic reticulum (ER) stress in human HCT-116 cells assessed as increase in ROS level at 10 nM measured after 24 hrs by fluorescent analysis (reference value: 12%); format: functional
# CT26 [17] = assay: Induction of mitochondrial dysfunction in mouse CT26 cells assessed as change in mitochondrial membrane potential (MMP) by JC-1 fluorescence assay; format: functional, cell-based; conditions: dose 2.5-40 µM
# HCT-116 [18] = assay: Induction of endoplasmic reticulum (ER) stress in human HCT-116 cells assessed as increase p-IRE1alpha expression at 10 to 20 nM measured after 24 hrs by Western blot analysis; format: functional, cell-based; conditions: dose 10-20 nM
# HCT-116 [19] = assay: Induction of endoplasmic reticulum (ER) stress in human HCT-116 cells assessed as increase p-eIF2alpha expression at 10 to 20 nM measured after 24 hrs by Western blot analysis; format: functional, cell-based; conditions: dose 10-20 nM
# HCT-116 [20] = assay: Antiproliferative activity against human HCT116 cells assessed as inhibition of proliferation measured after 24 hrs by CCK-8 assay; format: functional, cell-based; conditions: HCT-116, 24 h
# [21] = Toxicity in C57B/6-APCmin/+ mouse model assessed as organ toxicity at 3 mg/kg, ip treated for 45 days by H and E staining; format: organism-based; conditions: in vivo, 1080 h, time 45 day
# CT26 [22] = assay: Induction of endoplasmic reticulum (ER) stress in mouse CT26 cells assessed as increase p-PERK expression at 10 to 40 nM measured after 24 hrs by Western blot analysis; format: functional, cell-based; conditions: dose 10-40 nM
# CT26 [23] = assay: Induction of endoplasmic reticulum (ER) stress in mouse CT26 cells assessed as increase in ROS level at 40 nM measured after 24 hrs by fluorescent analysis (reference value: 14%); format: functional
# CT26 [24] = assay: Induction of apoptosis in mouse CT26 cells assessed as dead cells at 2.5 to 40 nM measured after 24 hrs by PI/Annexin V-FITC staining based flow cytometry; format: functional, cell-based; conditions: dose 2.5-40 nM
# CT26 [25] = assay: Induction of endoplasmic reticulum (ER) stress in mouse CT26 cells assessed as upregulation of cleaved-caspase 3 at 10 to 40 nM measured after 24 hrs by Western blot analysis; format: functional, cell-based; conditions: dose 10-40 nM
smiles,measurement,setting,value
COc1cc(C(=O)/C(C)=C/c2c[nH]c3cc(F)ccc23)cc(OC)c1OC,Activity,HCT-116 [1],Active
same,Kd,Tubulin,136 nM
same,Activity,CT26 [2],Active
same,Activity,HCT-116 [3],Dose-Dependent Effect
same,Activity,HCT-116 [4],35.6%
same,Activity,CT26 [5],24.4%
same,Activity,CT26 [6],Active
same,Activity,CT26 [7],15%
same,Activity,Tubulin (Homo sapiens),Active
same,Activity,Mus musculus,Active
same,Activity,HCT-116 [8],48.5%
same,Activity,HCT-116 [9],Active
same,Activity,CT26 [10],Active
same,Activity,HCT-116 [11],Dose-Dependent Effect
same,Activity,HCT-116 [12],Active
same,Activity,HCT-116 [13],74.4%
same,Activity,HCT-116 [14],Active
same,Activity,CT26 [15],Active
same,Activity,HCT-116 [16],73.8%
same,Activity,CT26 [17],Dose-Dependent Effect
same,Activity,HCT-116 [18],Active
same,Activity,HCT-116 [19],Active
same,IC50,HCT-116 [20],4.52 nM
same,Activity,[21],Non-Toxic
same,Activity,CT26 [22],Active
same,Activity,CT26 [23],59.1%
same,Activity,CT26 [24],Active
same,Activity,CT26 [25],Active
